# Experimental data published in patent publication US20220220100A1 (SOLUTIA CANADA INC., priority 2019, published 2022).
# Tests used:
# Type in all cases: physicochemical
# [1] = UV/Vis absorbance at 400 nm and Yellowness Index of the ring-open isomer; conditions: for Abs @ 400 nm, RO (Absorption of ring-open isomer at 400 nm): 2×10^−5 M solution, 1 cm pathlength cuvette
# Excerpt: In addition to the above, chromophores should have acceptable colour for both the ring-opened and ring-closed isomers. For example, the ring-open isomer of the chromophore should have a Yellowness Index (YI) of less than about 10 and an absorbance at 400 nm, as measured for a 2×10^−5 M solution in a 1 cm pathlength cuvette. For the ring-closed isomer of the chromophore, the lambda max should be between about 475 nm and 700 nm, tunable according to desired colour and number of chromophores in the composition.
# (§1) UV/Vis spectra were obtained using an OceanOptics™ Spectrophotometer. A 2×10^−5 M solution of compound in solvent was prepared, and photofaded using visible light until absorption in the visible region of the spectrum stabilized. The sample was then irradiated with simulated sunlight (QSUN SS-150 Solar Simulator with xenon arc lamp) until the absorption spectrum stabilized. To obtain PSS in the presence of a UV blocking film, a second sample was prepared and irradiated as described, with a UV blocking film inserted in the light path when irradiating.
# [2] = Photostationary state (PSS) and lambda max under simulated sunlight (solar simulator); conditions: for PSS (Steady State): head of Table 3; for PSS (Steady State) / PSS (SS): absorbance at photostationary state, 2×10^−5 M solution; for λmax (nm): peak in the visible range, ring-closed (dark) state; for PSS (SS): simulated sunlight (solar simulator)
# Excerpt: The term “photostationary state” (PSS) refers to an equilibrium state of a compound or material where the rate of the ring closing (forward) reaction is equal to the rate of the ring-opening reaction, when irradiated with light in a given region of the spectrum. In other words, the ratio of the ring-open isomer to the ring-closed isomer is at an equilibrium. PSS may be expressed with reference to a light source, or with reference to a type of light, for example, QUV, Xenon-arc lamp, Q-SUN, natural or filtered sunlight, UV, VIS, IR, NIR, full spectrum or the like, or with reference to a particular wavelength or range of wavelengths, or in the presence or absence of a filter. Some ring-open and ring-closed isomers may undergo isomerization from one to the other in response to different wavelengths of light. If a wavelength of light is used where only one of the isomers absorbs, irradiation results in complete isomerization to the other form. 254 nm, 313 nm or 365 nm light are commonly used in studies of UV-absorbing isomers, but this may not be representative of the PSS under other light conditions that include the visible spectrum such as natural or simulated sunlight (“full spectrum” light) and/or with filters that block a portion of the UV component of the light. For example, in a ring-closed (dark) state, the magnitude of the maximum absorbance in the visible range may change with the light source (FIG. 1). The wavelength at this peak in the visible range may be referred to as lambda max, or λmax. […] When full spectrum light from a solar simulator (Xenon arc lamp) is used as a light source (line B), a balance is achieved between the ring-closed (dark) state induced by the UV component, and a ring-open (faded) state induced by the visible component of the light. Inclusion of a UV blocking layer in the light path (line A) may reduce the UV component of the light, and the ring-opening reaction induced by the visible light component becomes more prominent. […] Where desired, the ratio of ring-open and ring-closed isomers at a PSS may be quantified by ^1H NMR spectroscopy, such as described in U.S. Pat. No. 7,777,055. In various embodiments, compounds with an increased absorbance at a photostationary state (PSS), or increased contrast ratio, are an improvement over other diarylethene compounds. A compound with a greater absorbance in the visible range can be used in lesser quantities in a formulation or material to achieve a desired contrast ratio, whereas a compound with a lower absorbance at a PSS may need a higher concentration to achieve a desired contrast ratio.
# Photostationary State (PSS)
# as §1
# [3] = Solubility in Rhodiasolv IRIS solvent; conditions: for Solubility in Rhodiasolv IRIS: Rhodiasolv IRIS (dimethyl-2-methyl glutarate), wt %; for Solubility (in words): relative to the methoxy parent chromophore
# Excerpt: A compound with greater solubility allows for a formulation or material with a greater concentration of coloured molecule to be incorporated into a composition. This may allow for increasing the contrast ratio for a compound with a lesser absorbance at PSS. Examples of solubilizing groups for the compound include alkoxy, ether, ester or siloxy groups. In various embodiments, compounds may be soluble in the solvent component at room temperature at about 6 wt %, 7 wt %, 8 wt %, 9 wt %, 10 wt % or greater for testing to determine whether a compound has application as an exterior glazing or optical filter. If the solubility of a compound in the solvent component is too low, then insufficient darkening may be achieved in the ring-closed configuration, depending on conditions of use for the compound.
# Chromophore solutions in Rhodiasolv IRIS were prepared at 1 to 10 wt % loading. Solutions were prepared in a glovebox by charging the chromophore and Rhodiasolv IRIS to a trace-clean vial, and the solution was stirred on a hotplate at 90° C. for 2-24 hours. After cooling, the chromophore solution was injected into glass weathering cells and the fill and vent ports were sealed with a thin disc of Kalrez (FFKM Perfluorinated Elastomer) and secured with a clamp and set-screw. The weathering cells were filled and sealed inside the glove box.
Structure (SMILES),YI (Yellowness Index) [1],"Abs @ 400 nm, RO (Absorption of ring-open isomer at 400 nm) [1]",PSS (Steady State) [2],λmax (nm) [2],Solubility in Rhodiasolv IRIS [3],PSS (SS) [2],Solubility (in words) [3]
COc1ccc2c(C3=C(c4cc(-c5ccc(C(C)(C)C)s5)sc4-c4ccc(C(C)(C)C)s4)C(F)(F)C(F)(F)C3(F)F)c(-c3ccc(C(C)(C)C)cc3)oc2c1,3.32,0.0809,0.255,575 nm,<3%,,
COc1cc2oc(-c3ccc(C(C)(C)C)cc3)c(C3=C(c4cc(-c5cc6c(s5)C(C)(C)CCC6(C)C)sc4-c4cc5c(s4)C(C)(C)CCC5(C)C)C(F)(F)C(F)(F)C3(F)F)c2cc1OC,8.12,0.131,,594 nm,<3%,0.358,
COCCCOc1cc2oc(-c3ccc(C(C)(C)C)cc3)c(C3=C(c4cc(-c5cc(C(C)(C)C)cs5)sc4-c4cc(C(C)(C)C)cs4)C(F)(F)C(F)(F)C3(F)F)c2cc1OCCCOC,4.29,0.103,,594 nm,>10%,0.319,
CC(C)(C)c1ccc(-c2oc3cc(OCCN4C(=O)CCC4=O)c(OCCN4C(=O)CCC4=O)cc3c2C2=C(c3cc(-c4cc(C(C)(C)C)cs4)sc3-c3cc(C(C)(C)C)cs3)C(F)(F)C(F)(F)C2(F)F)cc1,4.72,0.136,,585 nm,>10%,0.364,
"COc1cc2oc(-c3ccc(C(C)(C)C)cc3)c(C3=C(c4cc(-c5ccc(C(C)(C)C)s5)sc4-c4ccc(C(C)(C)C)s4)C(F)(F)C(F)(F)C3(F)F)c2cc1OC [Chromophore S340, 2-(4-(tert-butyl)phenyl)-3-(2-(5,5″-di-tert-butyl-[2,2′:5′,2″-terthiophen]-3′-yl)-3,3,4,4,5,5-hexafluorocyclopent-1-en-1-yl)-5,6-dimethoxybenzofuran]",5.61,0.128,0.417,591 nm,7%,,
"CC(C)(C)c1ccc(-c2oc3ccccc3c2C2=C(c3cc(-c4ccc(C(C)(C)C)s4)sc3-c3ccc(C(C)(C)C)s3)C(F)(F)C(F)(F)C2(F)F)cc1 [Chromophore S343, 2-(4-(tert-butyl)phenyl)-3-(2-(5,5″-di-tert-butyl-[2,2′:5′,2″-terthiophen]-3′-yl)-3,3,4,4,5,5-hexafluorocyclopent-1-en-1-yl)benzofuran]",4.87,0.11,0.315,573 nm,<1%,,
"COc1ccc2oc(-c3ccc(C(C)(C)C)cc3)c(C3=C(c4cc(-c5ccc(C(C)(C)C)s5)sc4-c4ccc(C(C)(C)C)s4)C(F)(F)C(F)(F)C3(F)F)c2c1 [Chromophore S344, 2-(4-(tert-butyl)phenyl)-3-(2-(5,5″-di-tert-butyl-[2,2′:5′,2″-terthiophen]-3′-yl)-3,3,4,4,5,5-hexafluorocyclopent-1-en-1-yl)-5-methoxybenzofuran]",2.91,0.1,0.337,583 nm,<3%,,
"COCCOc1cc2oc(-c3ccc(C(C)(C)C)cc3)c(C3=C(c4cc(-c5ccc(C(C)(C)C)s5)sc4-c4ccc(C(C)(C)C)s4)C(F)(F)C(F)(F)C3(F)F)c2cc1OCCOC [Chromophore S364, 2-(4-(tert-butyl)phenyl)-3-(2-(5,5″-di-tert-butyl-[2,2′:5′,2″-terthiophen]-3′-yl)-3,3,4,4,5,5-hexafluorocyclopent-1-en-1-yl)-5,6-bis(2-methoxyethoxy)benzofuran]",4.21,0.105,0.427,593 nm,>10%,,improved
"CC(=O)Oc1cc2oc(-c3ccc(C(C)(C)C)cc3)c(C3=C(c4cc(-c5ccc(C(C)(C)C)s5)sc4-c4ccc(C(C)(C)C)s4)C(F)(F)C(F)(F)C3(F)F)c2cc1OC(C)=O [Chromophore S367, 2-(4-(tert-butyl)phenyl)-3-(2-(5,5″-di-tert-butyl-[2,2′:5′,2″-terthiophen]-3′-yl)-3,3,4,4,5,5-hexafluorocyclopent-1-en-1-yl)benzofuran-5,6-diyl diacetate]",5.47,0.102,0.32,583 nm,>10%,,improved
"CCOC(=O)CCCOc1cc2oc(-c3ccc(C(C)(C)C)cc3)c(C3=C(c4cc(-c5ccc(C(C)(C)C)s5)sc4-c4ccc(C(C)(C)C)s4)C(F)(F)C(F)(F)C3(F)F)c2cc1OCCCC(=O)OCC [Chromophore S374, diethyl 4,4′-((2-(4-(tert-butyl)phenyl)-3-(2-(5,5″-di-tert-butyl-[2,2′:5′,2″-terthiophen]-3′-yl)-3,3,4,4,5,5-hexafluorocyclopent-1-en-1-yl)benzofuran-5,6-diyl)bis(oxy))dibutanoate]",6.76,0.144,0.422,590 nm,>10%,,improved
"COc1cc2oc(-c3ccc(C(C)(C)C)cc3)c(C3=C(c4cc(-c5cc(C(C)(C)C)cs5)sc4-c4cc(C(C)(C)C)cs4)C(F)(F)C(F)(F)C3(F)F)c2cc1OC [Chromophore S377, 2-(4-(tert-butyl)phenyl)-3-(2-(4,4″-di-tert-butyl-[2,2′:5′,2″-terthiophen]-3′-yl)-3,3,4,4,5,5-hexafluorocyclopent-1-en-1-yl)-5,6-dimethoxybenzofuran]",4.89,0.101,,593 nm,>5%,0.308,
"COc1cc2oc(-c3ccc(C(C)(C)C)cc3)c(C3=C(c4cc(-c5ccc(C(C)(C)C)s5)sc4-c4sc(C(C)(C)C)cc4C)C(F)(F)C(F)(F)C3(F)F)c2cc1OC [Chromophore S378, 2-(4-(tert-butyl)phenyl)-3-(2-(5,5″-di-tert-butyl-3-methyl-[2,2′:5′,2″-terthiophen]-3′-yl)-3,3,4,4,5,5-hexafluorocyclopent-1-en-1-yl)-5,6-dimethoxybenzofuran]",4.94,0.127,0.351,593 nm,<5%,,
